Earlier results on one compound are cited in patent US8460861B2, “Method for producing hydrogen-containing fluid able to be used in a living organism” (MIZ Co. Ltd., priority 2009, dated 2013).

The conditions of this data set: 20 C degrees under 1 barometric pressure.

For the compound `[HH]` [molecular hydrogen], the saturation concentration is on record as 1.6 ppm.
